How the values were obtained:
Format in all cases: in vivo, ICR male mice
[1] = test system: model animal with acute colitis induced by TNBS; assay: Acute colitis induced by TNBS in mice, appearance analysis of colon (colon length, macroscopic score), first experiment; conditions: Table 3 (group 2), TNBS-treated mice, 3 days; for Macroscopic score (Mean score): score 0-5
Experimental: 4-week ICR male mice (24 to 27 g) were purchased from OrientBio. All the mice were bred under the controlled environmental conditions of 50±10% of humidity and 25±2° C. of temperature, and the lighting was repeatedly on for 12 hours and off for 12 hours. A feed for a standard experiment (Samyang, Korea) was used as a feed, and water was freely taken. For all the experiments, one group was 6 mice. […] Meanwhile, 0.1 ml of normal saline solution was orally administered to the normal group. Since then, from the next day, the sample dissolved in normal saline solution was orally administered in the volume that was decided in advance one time a day for 3 days. At the next day after completing the sample administration, the experimental animals were suffocated to death with carbon dioxide, the colon from appendix to the region just before the anus was removed from the colon region. The scores about the removed colons were estimated by observing the appearances and the lengths of the colons according to the following criteria (Hollenbach, and the like, the criteria about the level of colon in 2005) as listed in Table 1. […] In addition, some of the content in the colon was collected in order to analyze the rumen microorganisms, and then, was stored in a freezer of −80° C. From the tissue of colon, the content in the colon was completely removed and then the tissue of colon was washed with normal saline solution. Since then, some of the tissue was fixed with 4% formaldehyde fixing solution in order to be used as a sample for a histopathological examination, and the rest was stored in a freezer of −80° C. for a molecular biological analysis.

Myeloperoxidase (MPO) = assay: MPO activity of colon tissue (mouse MPO ELISA kit), TNBS colitis, first experiment; conditions: Table 3 (group 2), TNBS-treated mice, 3 days
Experimental: (§1) Among the experimental groups, one group was set as a normal group, and for the experimental animals in other groups, colitis was induced with 2,4,6-trinitrobenzenesulfonic acid (TNBS). In detail, after lightly anesthetizing the experimental animals with ether, 0.1 ml of the solution prepared by mixing […] of 2,4,6-Trinitrobenzene sulfonic acid (NBS) solution with 50% ethanol was injected into the colon through the anus using a syringe having 1 ml volume and oval point, respectively; and then, the syringe was vertically picked up, and then, maintained for 30 seconds to induce the inflammation. Meanwhile, 0.1 ml of normal saline solution was orally administered to the normal group. Since then, from the next day, the sample dissolved in normal saline solution was orally administered in the volume that was decided in advance one time a day for 3 days. At the next day after completing the sample administration, the experimental animals were suffocated to death with carbon dioxide, the colon from appendix to the region just before the anus was removed from the colon region.
200 μl of lysis buffer was added to 100 mg of colon tissue, and then, the colon tissue was homogenized. Since then, the homogenized colon tissue was centrifuged under the conditions of 4° C. and 13000 rpm for 15 minutes, and then, the supernatant thereof was obtained. In the supernatant, the MPO activity was measured using a mouse MPO assay ELISA kit (Hbt HK210, USA). 100 μl of the supernatant was added in a 96 well plate, and then, reacted at room temperature for 1 hour. After completing the reaction, the plate was overturned and emptied; was repeatedly washed three times with 200 μl of washing buffer solution; 100 μl of diluted tracer was added thereto; and then the reaction was performed at room temperature for 1 hour. After completing the reaction, the plate was overturned and emptied; and then each well in the plate was washed using 200 μl of washing buffer solution. After repeatedly performing the washing processes three times using 200 μl of washing buffer solution, 100 μl of diluted streptavidin-peroxidase conjugate was added thereto, and then, the reaction was performed at room temperature for 1 hour. After completing the reaction, the plate was overturned and emptied, and then, each well in the plate was washed with 200 μl of washing buffer solution. After the washing processes were repeatedly performed three times using 200 μl of washing buffer solution, 100 μl of TMB substrate solution was added thereto; the plate was wrapped in an aluminum foil to block out the light; and then, the reaction was performed at room temperature for 30 minutes. Since then, 100 μl of a stop solution was added to stop the reaction, and then, the absorbance was measured at 450 nm using an ELISA reader.

IL-1 beta = IL-1 beta expression in colon tissue (ELISA), TNBS colitis, first experiment; conditions: Table 5 (group 2), TNBS-treated mice, 3 days
Experimental: as §1
(§2) 250 μl of RIPA butter including protease inhibitor cocktail was added to 100 mg of the colon tissue of experimental animal, and then, the colon tissue was homogenized. Since then, the homogenized colon tissue was centrifuged under the conditions of 4° C. and 13000 rpm for 15 minutes to obtain supernatant. While the supernatant was stored at −80° C., the expression amounts of IL-1 beta, IL-6, and TNF-alpha were measured using a 96-well ELISA plate kits (Pierce Biotechology, Inc., Rockford, Ill., USA).

IL-6 = IL-6 expression in colon tissue (ELISA), TNBS colitis, first experiment; conditions: Table 5 (group 2), TNBS-treated mice, 3 days
Experimental: as §1, §2

TNF-alpha = TNF-alpha expression in colon tissue (ELISA), TNBS colitis, first experiment; conditions: Table 5 (group 2), TNBS-treated mice, 3 days
Experimental: as §1, §2

[2] = test system: model animal with acute colitis induced by TNBS; assay: Acute colitis induced by TNBS in mice: weight change, macroscopic score, colon length, MPO activity, 4th experiment (Timosaponin A-III); conditions: FIGS. 38 to 41; 10 and 20 mg/mouse kg orally
Experimental: 4-week ICR male mice (24 to 27 g) were purchased from OrientBio. All the mice were bred under the controlled environmental conditions of 50±10% of humidity and 25±2° C. of temperature, and the lighting was repeatedly on for 12 hours and off for 12 hours. A feed for a standard experiment (Samyang, Korea) was used as a feed, and water was freely taken. For all the experiments, one group was 6 mice.
(2) Induction of acute colitis by TNBS and sample administration Among the experimental groups, one group was set as a normal group, and for the experimental animals in other groups, colitis was induced with 2,4,6-trinitrobenzenesulfonic acid (TNBS). […]
The sample administration to the model animals with acute colitis induced by TNBS was stopped, and at the next day, the weights of the experimental animals were measured, and then, the measured weights were compared with the initial weights to calculate the change amounts of weights […]
200 μl of lysis buffer was added to 100 mg of colon tissue, and then, the colon tissue was homogenized. […] In the supernatant, the MPO activity was measured using a mouse MPO assay ELISA kit (Hbt HK210, USA). […]

O=c1c2cc(O)c(O)cc2oc2cc(O)c([C@@H]3O[C@H](CO)[C@@H](O)[C@H](O)[C@H]3O)c(O)c12 [mangiferin, Mangiferin]
Colon length ([1]; 10 mg/kg orally): 5.81 ± 0.09 cm | Macroscopic score (Mean score) ([1]; 10 mg/kg orally): 2.7 ± 0.45 | Colon length ([1]; 20 mg/kg orally): 6.98 ± 0.21 cm | Macroscopic score (Mean score) ([1]; 20 mg/kg orally): 1.7 ± 0.27 | MPO activity (Myeloperoxidase (MPO); 10 mg/kg orally): 0.5 ± 0.2 μUnit/mg | MPO activity (Myeloperoxidase (MPO); 20 mg/kg orally): 0.2 ± 0.2 μUnit/mg | IL-1 beta conc. (IL-1 beta; 10 mg/kg orally): 57.4 ± 2.1 pg/mg | IL-1 beta conc. (IL-1 beta; 20 mg/kg orally): 28.1 ± 12.1 pg/mg | IL-6 conc. (IL-6; 10 mg/kg orally): 5.0 ± 0.6 pg/mg | IL-6 conc. (IL-6; 20 mg/kg orally): 2.2 ± 0.8 pg/mg | TNF-alpha conc. (TNF-alpha; 10 mg/kg orally): 83.8 ± 10.9 pg/mg | TNF-alpha conc. (TNF-alpha; 20 mg/kg orally): 40.8 ± 10.9 pg/mg

C[C@H]1CC[C@@]2(OC1)O[C@H]1C[C@H]3[C@@H]4CC[C@@H]5C[C@@H](O[C@@H]6O[C@H](CO)[C@H](O)[C@H](O)[C@H]6O[C@@H]6O[C@H](CO)[C@@H](O)[C@H](O)[C@H]6O)CC[C@]5(C)[C@H]4CC[C@]3(C)[C@H]1[C@@H]2C [Timosaponin A-III]
effect on alleviating or improving acute colitis induced by TNBS (weight change, macroscopic score, colon length, MPO activity; in words) [2]: effect on alleviating or improving acute colitis induced by TNBS according to the concentration dependent

O=c1c2cc(O[C@@H]3O[C@H](CO)[C@@H](O)[C@H](O)[C@H]3O)c(O)cc2oc2cc(O)c([C@@H]3O[C@H](CO)[C@@H](O)[C@H](O)[C@H]3O)c(O)c12 [neomangiferin, Neomangiferin]
Colon length ([1]; 10 mg/kg orally): 5.78 ± 0.10 cm | Macroscopic score (Mean score) ([1]; 10 mg/kg orally): 2.8 ± 0.51 | MPO activity (Myeloperoxidase (MPO); 10 mg/kg orally): 0.6 ± 0.2 μUnit/mg | IL-1 beta conc. (IL-1 beta; 10 mg/kg orally): 62.2 ± 5.1 pg/mg | IL-6 conc. (IL-6; 10 mg/kg orally): 6.9 ± 1.2 pg/mg | TNF-alpha conc. (TNF-alpha; 10 mg/kg orally): 93.6 ± 9.2 pg/mg
